# Calls of active or inactive are those of the source. The calls are words filed in the database; no cut-off is given here.
# Test system: Plasmodium falciparum
# Test: Antimalarial activity against Plasmodium falciparum 3D7 infected in O positive erythrocytes assessed as parasite lactate dehydrogenase activity after 72 hrs
# Format: functional, organism-based
# Details: 3D7, 72 h
row,Structure (SMILES),IC50 [µM]
1,CC(C)CNP1(=S)OCc2cc([N+](=O)[O-])ccc2O1 (configuration not stated),118
2,FC(F)(F)c1ccc(OP2(=S)NCCO2)cc1 (configuration not stated),108
3,Cc1ccc([N+](=O)[O-])cc1OP1(=S)NCCO1 (configuration not stated),24
4,CCOP(=O)(NC1CCCC1)Oc1ccc(C(F)(F)F)cn1 (configuration not stated),23
5,CC(C)CNP1(=S)OCc2ccccc2O1 (configuration not stated),58
6,CCOP(=S)(NC(C)C)Oc1ccc(C(F)(F)F)cn1 (configuration not stated),29
7,CCOP(=O)(NC(C)C)Oc1cc(C)c([N+](=O)[O-])cn1 (configuration not stated),25
8,CC(C)NP1(=S)OCc2cc([N+](=O)[O-])ccc2O1 (configuration not stated),108
9,CC1COP(=S)(Oc2ccc(C(F)(F)F)cc2)N1 (racemic),> 128
10,Cc1ccc([N+](=O)[O-])cc1OP1(=S)NCCCO1 (configuration not stated),108
11,CCOP(=O)(NC(C)C)Oc1ccc2ccccc2c1[N+](=O)[O-] (configuration not stated),98
12,Cc1cc2c(c([N+](=O)[O-])c1)OP(=S)(NC(C)C)OC2 (configuration not stated),> 128
13,FC(F)(F)c1ccc(OP2(=S)OCCS2)cc1 (configuration not stated),64
14,CC(C)NP1(=S)OCc2ccccc2O1 (configuration not stated),62
15,Cc1ccc(OP2(=S)NCCO2)c([N+](=O)[O-])c1 (configuration not stated),> 128
16,CCOP(=O)(NC(C)C)Oc1ccc(C(F)(F)F)cn1 (configuration not stated),25

row,Structure (SMILES),IC50 [µM]
1,CCOP(=S)(NC1CCCC1)Oc1cccc2cccnc12 (configuration not stated),25
2,FC(F)(F)c1ccc(OP2(=S)NCCCO2)cc1 (configuration not stated),62
3,CCOP(=S)(NCCCCNc1ccnc2cc(Cl)ccc12)Oc1ccc(C(F)(F)F)cc1 (configuration not stated),0.038
4,Cc1cc([N+](=O)[O-])ccc1OP1(=S)NCCCO1 (configuration not stated),128
5,CCOP(=O)(NC(C)C)Oc1nccc(C)c1[N+](=O)[O-] (configuration not stated),128
6,Cc1ccc([N+](=O)[O-])c(OP2(=S)NCCCO2)c1 (configuration not stated),> 128
7,NCCCCNc1ccnc2cc(Cl)ccc12,0.64
8,Cc1ccc(OP2(=S)NCCCO2)c([N+](=O)[O-])c1 (configuration not stated),> 128
9,CCOP(=O)(NC(C)C)Oc1cc(C)ccn1 (configuration not stated),128
10,CCOP(=S)(NC1CCCC1)Oc1ccc2ncccc2c1 (configuration not stated),19
11,Cc1ccc(OP2(=S)NC(C)CO2)c([N+](=O)[O-])c1 (mixture of isomers),77
12,CCCNP1(=S)OCc2ccccc2O1 (configuration not stated),95
13,CCOP(=O)(NC(C)C)Oc1cc(O)ccn1 (configuration not stated),128
14,Cc1cc([N+](=O)[O-])ccc1OP1(=S)NCCO1 (configuration not stated),51
15,CCOP(=O)(NC(C)C)Oc1ccc2ccccc2c1 (configuration not stated),87

# Test system: Plasmodium falciparum
# Test: Antimalarial activity against chloroquine-resistant Plasmodium falciparum K1/Thailand infected in O positive erythrocytes assessed as parasite lactate dehydrogenase activity after 72 hrs
# Format: functional, organism-based
# Details: not given
row,Structure (SMILES),Activity
1,CCOP(=S)(NCCCCNc1ccnc2cc(Cl)ccc12)Oc1ccc(C(F)(F)F)cc1 (configuration not stated),Active

# Source: ChEMBL document CHEMBL2390934, “Synthesis and evaluation of phenoxyoxazaphospholidine, phenoxyoxazaphosphinane, and benzodioxaphosphininamine sulfides and related compounds as potential anti-malarial agents” (Bioorg Med Chem Lett, 2013)
